What all share (type): cell-based
In test [1] the test system is SMMC-7721 cells. Nature of the test: MTT proliferation assay, SMMC-7721. Conditions: Homo sapiens; SMMC-7721, MTT, 48 h. On the procedure: (§1) Difference cell lines HepG2, SMMC-7721, HuH-7, MCF-7, MDA-MB-231, MDA-MB-468, PC9, PC9-AR, PC9-GR, Jurkat and Molt-13 were harvested during log phase; the number of the cells in an original cell suspension was counted; the original cell suspension was diluted to a density of 5×10^4 cells/mL; for a 96-well plate, 100 uL of the cell suspension was transferred to each well; DMSO is used as solvent for negative control; (2E)-3-(6-bromo-2-pyridyl)-2-cyano-N-[(1S)-1-phenylethyl]-2-acrylamide (WP1066CAS: 857064-38-1, with a formula
(§2) or gefitinib was used as a positive control; the naphthylurea compound ID1120B-1 and the phosphate ID1120B-P thereof were diluted with DMSO and added into the 96-well plate to achieve a final concentration of 0.1, 0.3, 1, 3, 10, 30, 100 and 300 μmol/L in each well; the 96-well plate was incubated for 48 h; 10 μL of MTT solvent (5 mg/mL) was added into each well; the 96-well plate was incubated at 37° C. for 4 h; a culture supernatant was discarded; 150 μL of DMSO was added into each well; the 96-well plate was shaken for 10 min on a plate shaker; an optical density (OD) of the resulting product was measured at a wavelength of 490 nm by an ELISA reader. Test results were recorded. A cell growth curve was drawn with the dosage of each compound as abscissa and the absorbance value as ordinate. The half maximum inhibition rates (IC50 value) of the cancer cells were shown in Table 1, FIGS. 1A-1J and FIGS. 2A-2J.
In general terms: Tetrazolium assays rely on reduction of a dye to a coloured formazan, in cell work by metabolically active cells.

In test [2] the test system is MDA-MB-231 cells. Nature of the test: MTT proliferation assay, MDA-MB-231. Conditions: Homo sapiens; MDA-MB-231, MTT, 48 h. On the procedure:
(§3) Test results were recorded. A cell growth curve was drawn with the dosage of each compound as abscissa and the absorbance value as ordinate.

In test [3] the test system is MDA-MB-468 cells. Nature of the test: MTT proliferation assay, MDA-MB-468. The following applies: Homo sapiens, MDA-MB-468, 48 h, MDA-MB-468, MTT. On the procedure: as §3
For test [4], the system named is HepG2 cells. As to the kind of experiment: MTT proliferation assay, HepG2. On the procedure: as §1, §2
Test [5] deals with HuH-7 cells. As to the kind of experiment: MTT proliferation assay, HuH-7. The following applies: Homo sapiens; HuH-7, MTT, 48 h. The method, then:
as §1, §2

Test [6] has as its system PC9AR cells. Nature of the test: MTT proliferation assay, PC9AR. The following applies: 48 h. On the procedure: as §3
In test [7] the test system is PC9GR cells. As to the kind of experiment: MTT proliferation assay, PC9GR. Conditions: 48 h. The method, then: as §3
Test [8] relates to PC9 cells. As to the kind of experiment: MTT proliferation assay, PC9. The following applies: Homo sapiens, PC-9, 48 h. The method, then:
as §3

Test [9] has as its system MOLT-13 cells. As to the kind of experiment: MTT proliferation assay, MOLT-13. The following applies: MOLT-13, MTT. The method, then:
as §1, §2

The test system of test [10] is HepG2 cells. Nature of the test: Cell cycle analysis by PI flow cytometry. The following applies: HepG2, 48 h; for induction of cells in the G2/M phase / percentage of cells in the G1/S phase: compared with negative control (DMSO). On the procedure:
HepG2 cells were harvested during log phase, digested, centrifuged and prepared into a single cell suspension; the number of the cells in the single cell suspension was counted; the cells were seeded into a 12-well plate, with 2×10^5 cells per well; three wells were used as a parallel control design; 16 hours after seeding, the cells were treated with the compounds in a concentration gradient for 48 h; the cells were digested with trypsin and resuspended; the number of the cells in the cell suspension was counted and diluted to 5×10^5 cells/mL; after the digestion was completed, the cell suspension was centrifuged; the supernatant was discarded; the pellet was washed twice with PBS (each time the mixture was centrifuged 2000 rpm for 5 min); the supernatant was discarded; a fixative comprising 980 μL of 70% cold ethanol and 20 μL of 5% BSA (a small amount of BSA reduces cellular stress and damage) was added to each microcentrifuge tube, so that the cells were fixed overnight at 4° C.; the fixative is discarded; the cells were washed three times in PBS to remove residual fixative (each time the mixture was centrifuged at 1000 rpm for 3 min); a DNA quantification kit is used to measure the content of DNA according to the following instruction (Suo Laibao, Beijing): each sample was incubated in 100 μL of RNase A at 37° C. for 30 min; 500 μL of PI (propidium iodide) was added to each sample; each sample was incubated at room temperature for 30 min in the dark; the cell cycle was analyzed by a flow cytometry and a ModFit software; and Graphpad prism 6.0 was used to estimate the percentage of a cell population in the different phases of the cell cycle.

Test [11] has as its system Jurkat cells. As to the kind of experiment: MTT proliferation assay, Jurkat. Conditions: 48 h. On the procedure: as §1, §2
Test [12] deals with MCF-7 cells. As to the kind of experiment: MTT proliferation assay, MCF-7. Conditions: Homo sapiens, MCF7; MCF-7, MTT, 48 h; read-out: IC50. The method, then:
as §3

Test [13] has as its system HepG2 liver cancer cells. Nature of the test: Annexin V-FITC/PI apoptosis flow cytometry. The following applies: HepG2, 48 h. The method, then:
The HepG2 cells were harvested during log phase, digested, centrifuged and prepared into a single cell suspension; the number of the cells in the cell suspension was counted; the cells were seeded into a 12-well plate, with 2×10^5 cells per well; three wells were used as a parallel control design; 16 hours after seeding, the cells were treated with the compounds in a concentration gradient for 48 h; the cells were digested with EDTA-free trypsin and resuspended; the number of the cells in the cell suspension was counted and diluted to 1×10^6 cells/mL; an annexin V apoptosis detection kit was used according to the following instruction (Suo Laibao, Beijing): the cells were washed twice with 1×PBS (each time the mixture was centrifuged at 6000 rpm for 0.5 min), washed once with 1×Binding buffer (and the mixture was centrifuged at 6000 rpm for 0.5 min); the supernatant was discarded; the cells were resuspended with 300 μL of 1×Binding buffer; 5 μL of Annexin V-FITC was added into each tube, and incubated in the dark for 10 min; 5 μL of PI was added into each tube and incubated in the dark for 5 min; and each tube was then inspected on a machine in the dark.
A general note: A flow cytometer gives signals particle by particle.

pIC50: −log10 of the molar value.

The pIC50 is the IC50 on a negative log10 scale, so that one unit is a factor of ten.

For `O=C(NCc1ccccc1)Nc1ccc(OCc2ccc(OCCN3CCCCC3)cc2)c2ccccc12` [ID1120B-1, 1-benzyl-3-(4-((4-(2-(piperidin-1-yl)ethoxy)benzyl)oxy)naphthalen-1-yl)urea], the pIC50 in test [1] is 5.45; in test [2], 4.76; in test [3] it was 5.31; in test [4] (48 h), 5.78; in [5], 5.50; in test [6] it was 5.10. Further, the negative-log IC50 (pIC50) is 4.49 in test [7]; 4.85 in test [8]; 4.97 in test [9] (Homo sapiens, MOLT-13, 48 h); 5.49 in test [11] (Homo sapiens). In test [10], the “induction of cells in the G2/M phase” value is “dramatically induce the liver cancer cells in the G2/M phase in a dose-dependent manner”. Further, the “percentage of cells in the G1/S phase” value in test [10] is recorded as “significantly decrease the percentage of the liver cancer cells in the G1/S phase”.

With `C[C@H](NC(=O)/C(C#N)=C/c1cccc(Br)n1)c1ccccc1` [WP1066, (2E)-3-(6-bromo-2-pyridyl)-2-cyano-N-[(1S)-1-phenylethyl]-2-acrylamide, reference compound], the pIC50 in test [1] was 4.93; in [2], 4.99; in test [12] it was 4.74; in [3], 4.88; in test [4] (Homo sapiens, HepG2, 48 h), 5.04; in test [5] it was 5.09. Besides, the pIC50 in test [6] was 5.07; in test [7], 4.83; in [8] it was 5.03; in test [9] (Homo sapiens, MOLT-13, 48 h), 4.77; in test [11] (Homo sapiens), 5.00.

With `COc1ccc(NC(=O)Nc2ccc(OCc3ccc(OCCN4CCCCC4)cc3)c3ccccc23)cc1` [IY1214A-1], the pIC50 in test [1] was 5.45; in test [2], 5.68; in test [12], 5.45; in test [4] (Homo sapiens, HepG2, 48 h), 5.73; in test [5], 5.56. Moreover, the figures for the apoptosis rate in test [13] (4 μM) and in [13] (8 μM) were 57.7% and 63%, respectively. In addition, the “apoptosis rate, times higher than that of untreated wells” value in test [13] (4 μM and 8 μM) is recorded as “more than 2 times”. Also, the induction of apoptosis result in [13] (compared with the control group) is “induce apoptosis in the HepG2 liver cancer cells in a dose-dependent manner”. In addition, the “induction of cells in the G2/M phase” value in [10] is given as “dramatically induce the liver cancer cells in the G2/M phase in a dose-dependent manner”. Also, the “percentage of cells in the G1/S phase” value in [10] is “significantly decrease the percentage of the liver cancer cells in the G1/S phase”. The “length of the G2 phase, % of the cell cycle, after treatment” value in test [10] (value reached after treatment (increase from DMSO control value)) amounted to 34.54%.

As to `O=C(NCc1ccccc1)Nc1ccc(OCc2ccc(OCCN3CCCCC3)cc2)c2ccccc12` [ID1120B-P, 1-benzyl-3-(4-((4-(2-(piperidin-1-yl)ethoxy)benzyl)oxy)naphthalen-1-yl)urea phosphate], the negative-log IC50 (pIC50) in test [4] (Homo sapiens, HepG2, 48 h) is 5.63; in test [9] (48 h, phosphate) it was 5.01; in test [11] (phosphate) it was 5.32.
